ChEMBL document CHEMBL4002621, “Novel 12N-substituted matrinanes as potential anti-coxsackievirus agents” (Bioorg Med Chem Lett, 2017)
pIC50: −log10 of the molar value.

Key:
[1] = tested on: Coxsackievirus B3; assay: Antiviral activity against Coxsackievirus B3 (strain Nancy) infected in African green monkey Vero cells assessed as reduction in viral-induced cytopathic effect by Reed and Muench analysis; type: functional; settings: Enterovirus B
[2] = Selectivity index, ratio of TC50 for African green monkey Vero cells to IC50 for Coxsackievirus B4 J.V.B infected in African green monkey Vero cells; type: toxicity; settings: read-out: Selectivity Index
[3] = tested on: Coxsackievirus B4; assay: Antiviral activity against Coxsackievirus B4 J.V.B infected in African green monkey Vero cells assessed as reduction in viral-induced cytopathic effect by Reed and Muench analysis; type: functional; settings: Enterovirus B
[4] = Selectivity index, ratio of TC50 for African green monkey Vero cells to IC50 for Coxsackievirus B1 Conn-5 infected in African green monkey Vero cells; type: toxicity; settings: read-out: Selectivity Index
[5] = Antiviral activity against Coxsackievirus B2 (strain Ohio-1) infected in African green monkey Vero cells assessed as reduction in viral-induced cytopathic effect by Reed and Muench analysis; type: functional; settings: Enterovirus B
[6] = Selectivity index, ratio of TC50 for African green monkey Vero cells to IC50 for Coxsackievirus B6 (strain Schmitt) infected in African green monkey Vero cells; type: toxicity; settings: read-out: Selectivity Index
[7] = Selectivity index, ratio of TC50 for African green monkey Vero cells to IC50 for Coxsackievirus B5 Faulkner infected in African green monkey Vero cells; type: toxicity; settings: read-out: Selectivity Index
[8] = Selectivity index, ratio of TC50 for African green monkey Vero cells to IC50 for Coxsackievirus B2 (strain Ohio-1) infected in African green monkey Vero cells; type: toxicity; settings: read-out: Selectivity Index
[9] = tested on: Coxsackievirus B5; assay: Antiviral activity against Coxsackievirus B5 Faulkner infected in African green monkey Vero cells assessed as reduction in viral-induced cytopathic effect by Reed and Muench analysis; type: functional; settings: Enterovirus B
[10] = Selectivity index, ratio of TC50 for African green monkey Vero cells to IC50 for Coxsackievirus B3 (strain Nancy) infected in African green monkey Vero cells; type: toxicity; settings: read-out: Selectivity Index
[11] = tested on: Coxsackievirus A16; assay: Antiviral activity against Coxsackievirus A16 shzh05-1 infected in African green monkey Vero cells assessed as reduction in viral-induced cytopathic effect by Reed and Muench analysis; type: functional; settings: Enterovirus A, shzh05-1, Vero
[12] = Acute toxicity in po dosed Kunming mouse assessed as effect on body weight and survival administered as single dose measured up to 7 days; type: organism-based; settings: in vivo
[13] = Cytotoxicity against African green monkey Vero cells assessed as growth inhibition after 48 hrs; type: cell-based; settings: chlorocebus sabaeus, read-out: TC50
[14] = tested on: Coxsackievirus B1; assay: Antiviral activity against Coxsackievirus B1 Conn-5 infected in African green monkey Vero cells assessed as reduction in viral-induced cytopathic effect by Reed and Muench analysis; type: functional; settings: Enterovirus B, Conn-5, Vero
[15] = Antiviral activity against Coxsackievirus B6 (strain Schmitt) infected in African green monkey Vero cells assessed as reduction in viral-induced cytopathic effect by Reed and Muench analysis; type: functional; settings: Enterovirus B
[16] = Selectivity index, ratio of TC50 for African green monkey Vero cells to IC50 for Coxsackievirus A16 shzh05-1 infected in African green monkey Vero cells; type: toxicity; settings: read-out: Selectivity Index

CCCC[C@@H]1[C@H]2CCCN3CCC[C@@H](CN1C(=O)c1cc(OC)c(OC)c(OC)c1)[C@@H]23
pIC50 [1]: 5.40 | selectivity ratio [2]: 23.4 | pIC50 [3]: 5.31 | selectivity ratio [4]: 23.4 | pIC50 [5]: 5.46 | selectivity ratio [6]: 33.7 | selectivity ratio [7]: 15.6 | selectivity ratio [8]: 33.7 | pIC50 [9]: 5.13 | selectivity ratio [10]: > 50.6 | pIC50 [11]: 5.21 | LD50 at 168 h [12]: 327 mg/kg | CC50 at 48 h [13]: 115 to 200 µM | pIC50 [14]: 5.31 | pIC50 [15]: 5.46 | selectivity ratio [16]: 18.7

CCCC[C@@H]1[C@H]2CCCN3CCC[C@@H](CN1S(=O)(=O)c1ccsc1C(=O)OC)[C@@H]23
pIC50 [1]: 5.31 | selectivity ratio [10]: > 40.5 | CC50 at 48 h [13]: > 200 µM

CCCC[C@@H]1[C@H]2CCCN3CCC[C@@H](CN1S(=O)(=O)c1cccc(C(N)=O)c1)[C@@H]23
pIC50 [1]: 5.13 | selectivity ratio [10]: 30.7 | CC50 at 48 h [13]: 230 µM

CCCC[C@@H]1[C@H]2CCCN3CCC[C@@H](CN1S(=O)(=O)c1sc(NC(C)=O)nc1C)[C@@H]23
pIC50 [1]: 5.69 | selectivity ratio [10]: 46.7 | CC50 at 48 h [13]: 96.2 µM

CCCC[C@@H]1[C@H]2CCCN3CCC[C@@H](CN1C(=O)CC(=O)OC)[C@@H]23
pIC50 [1]: 4.34 | selectivity ratio [10]: > 4.33 | CC50 at 48 h [13]: > 200 µM

CCCC[C@@H]1[C@H]2CCCN3CCC[C@@H](CN1C(=O)c1ccccc1OC(C)=O)[C@@H]23
pIC50 [1]: 4.85 | selectivity ratio [10]: 17.1 | CC50 at 48 h [13]: 241 µM

CCCC[C@@H]1[C@H]2CCCN3CCC[C@@H](CN1C(=O)CCC)[C@@H]23
pIC50 [1]: 4.49 | selectivity ratio [10]: 6.24 | CC50 at 48 h [13]: 200 µM

CCCC[C@@H]1[C@H]2CCCN3CCC[C@@H](CN1Cc1ccc(C(=O)OC)cc1)[C@@H]23
pIC50 [1]: 5.21 | selectivity ratio [10]: 15.6 | CC50 at 48 h [13]: 96.2 µM

CCCC[C@@H]1[C@H]2CCCN3CCC[C@@H](CN1C(=O)N1CCN(S(C)(=O)=O)C1=O)[C@@H]23
pIC50 [1]: 4.28 | selectivity ratio [10]: > 9 | CC50 at 48 h [13]: > 469 µM

CCCC[C@@H]1[C@H]2CCCN3CCC[C@@H](CN1S(=O)(=O)c1ccsc1C(=O)O)[C@@H]23
pIC50 [1]: 4.82 | selectivity ratio [10]: > 13.3 | CC50 at 48 h [13]: > 200 µM

CCCC[C@@H]1[C@H]2CCCN3CCC[C@@H](CN1S(=O)(=O)c1cccnc1)[C@@H]23
pIC50 [1]: 5.40 | selectivity ratio [2]: > 58.3 | pIC50 [3]: 5.46 | selectivity ratio [4]: > 99 | pIC50 [5]: 5.47 | selectivity ratio [6]: > 58.1 | selectivity ratio [7]: > 58.3 | selectivity ratio [8]: > 59.7 | pIC50 [9]: 5.46 | selectivity ratio [10]: > 148 | pIC50 [11]: 5.13 | LD50 at 168 h [12]: 330 mg/kg | CC50 at 48 h [13]: 200 to 592 µM | pIC50 [14]: 5.69 | pIC50 [15]: 5.46 | selectivity ratio [16]: > 27

CCCC[C@@H]1[C@H]2CCCN3CCC[C@@H](CN1C(=O)c1c(C)noc1C)[C@@H]23
pIC50 [1]: 5.16 | selectivity ratio [10]: > 81 | CC50 at 48 h [13]: > 556 µM

CCCC[C@@H]1[C@H]2CCCN3CCC[C@@H](CN1C(=O)c1ccccc1O)[C@@H]23
pIC50 [1]: < 4.21 | CC50 at 48 h [13]: 324 µM

CCCC[C@@H]1[C@H]2CCCN3CCC[C@@H](CN1S(=O)(=O)c1ccccc1C(N)=O)[C@@H]23
pIC50 [1]: 4.63 | selectivity ratio [10]: 11.8 | CC50 at 48 h [13]: 276 µM

CCCC[C@@H]1[C@H]2CCCN3CCC[C@@H](CN1S(=O)(=O)c1cn(C)cn1)[C@@H]23
pIC50 [1]: < 4.18 | CC50 at 48 h [13]: > 200 µM

CCCC[C@@H]1[C@H]2CCCN3CCC[C@@H](CN1S(=O)(=O)c1sc(N)nc1C)[C@@H]23
pIC50 [1]: < 4.27 | CC50 at 48 h [13]: 233 µM

CCCC[C@@H]1[C@H]2CCCN3CCC[C@@H](CN1S(=O)(=O)c1cccc(C#N)c1)[C@@H]23
pIC50 [1]: 5.90 | selectivity ratio [10]: 146 | CC50 at 48 h [13]: 183 µM

CCCC[C@@H]1[C@H]2CCCN3CCC[C@@H](CN1Cc1ccccc1)[C@@H]23
pIC50 [1]: < 4.65 | CC50 at 48 h [13]: 96.2 µM

CCCC[C@@H]1[C@H]2CCCN3CCC[C@@H](CN1C(=O)CCC(=O)OC)[C@@H]23
pIC50 [1]: 4.96 | selectivity ratio [10]: > 18.1 | CC50 at 48 h [13]: > 200 µM

CCCC[C@@H]1[C@H]2CCCN3CCC[C@@H](CN1S(=O)(=O)c1ccc(C(N)=O)cc1)[C@@H]23
pIC50 [1]: 3.91 | selectivity ratio [10]: 2.68 | CC50 at 48 h [13]: 331 µM

CCCC[C@@H]1[C@H]2CCCN3CCC[C@@H](CN1S(=O)(=O)c1ccc4oc(=O)ccc4c1)[C@@H]23
pIC50 [1]: 5.49 | selectivity ratio [10]: 56 | CC50 at 48 h [13]: 180 µM

CCCC[C@@H]1[C@H]2CCCN3CCC[C@@H](CN1S(=O)(=O)c1cccs1)[C@@H]23
pIC50 [1]: 4.71 | selectivity ratio [10]: 13 | CC50 at 48 h [13]: 251 µM

CCCC[C@@H]1[C@H]2CCCN3CCC[C@@H](CN1C(=O)c1ccc(OC)cc1)[C@@H]23
pIC50 [1]: 5.21 | selectivity ratio [10]: 18.7 | CC50 at 48 h [13]: 116 µM

CCCC[C@@H]1[C@H]2CCCN3CCC[C@@H](CN1S(=O)(=O)CCN)[C@@H]23
pIC50 [1]: < 4.19 | CC50 at 48 h [13]: 280 µM

NC(=O)c1ncn([C@@H]2O[C@H](CO)[C@@H](O)[C@H]2O)n1 [RIBAVIRIN]
pIC50 [1]: 3.42 | pIC50 [3]: < 1.39 | selectivity ratio [4]: > 17.2 | pIC50 [5]: < 1.39 | selectivity ratio [6]: > 19.6 | selectivity ratio [7]: > 12.3 | selectivity ratio [10]: 16.8 | pIC50 [11]: 2.02 | CC50 at 48 h [13]: 6360 to 40900 µM | selectivity ratio [16]: > 4.3
